Assay [1] addresses T1, human V1a receptor (Homo sapiens, UniProt P37288).
T1 construct: expressed in transfected cells
The assay is described as follows: cell-based. The procedure:
The V1a receptor is a G-protein coupled receptor, which upon activation triggers an increase in intracellular calcium mobilization. To evaluate compounds for their functional V1a receptor activity, HEK-293 cells were transfected with the human V1a receptor (V1a-HEK cells). HEK-293 cells were grown in DMEM (Dulbecco's modified Eagle Media) supplemented with 10% FBS and glutamine. HEK-cells were passed biweekly by trypsinization and seeded into 96 well plates at 33,000 cells per well. HEK-293 cells were transfected with human V1a receptor DNA using DMRIE-C reagent from Life Technologies (Carlsbad, Calif.). Stable lines were generated by selecting cells grown in culture media containing geneticin. After growing in Packard Clear-View black 96 well plates for 4-6 days, V1a-HEK cells were loaded with the calcium-sensitive fluorescence dye, FLUO-3 AM. Changes in intracellular calcium mobilization were measured by quantitating intracellular fluorescence using FLIPR (Fluorometric Imaging Plate Reader; Molecular Devices, Sunnyvale, Calif.). Test compounds were first added to the cells and the resulting changes in fluorescence measured to detect receptor agonistic activity. Five minutes later the cells were challenged with vasopressin to test compounds for their antagonistic activity. Receptor antagonists inhibit the ability of vasopressin to stimulate increases in intracellular fluorescence.

Assay [2] concerns the target T2, human V2 receptor (Homo sapiens, UniProt P30518). The assay is described as follows: V2 vasopressin receptor functional activity (cAMP accumulation). The settings on record: V2-HEK cells; block of vasopressin-stimulated cAMP accumulation; read-out: V2 (functional) IC50. The assay is classed as cell-based. Further details: expressed in transfected cells; host or cells: HEK-293. Here is the method: The V2 receptor is also a G-protein coupled receptor which when activated induces an increase in cAMP turnover. Antagonism against the V2 receptor is determined by measuring cAMP accumulation in transfected HEK-293 cells expressing the human V-2 receptor (V2-HEK cells). Compounds are tested for their ability to block the stimulatory effects of vasopressin on cAMP accumulation. The cell content of cAMP is measured by radioimmunoassay using NEN flashplates.
(In general: cAMP levels reflect the balance of adenylyl cyclase and phosphodiesterase activity.)

Assay [3] addresses T2, human V2 receptor. The assay is described as follows: In-vitro binding assay (3H-arginine-8-vasopressin), V2. The settings on record: for IC50: membrane containing human V2 receptor, 3H-arginine-8-vasopressin 0.65-0.75 nM; for inhibition at 0.2 µM: test concentration of 0.2 μM, read-out: V2 binding percent inhibition (in parentheses, where an IC50 value was not obtained). Here is the method: Assay buffer is 50 mM Tris-Cl, 5 mM MgCl2, 0.1% BSA (pH 7.5) containing 5 μg/mL of aprotinin, leupeptin, pepstatin, 50 μg/mL bacitracin, and 1 mM Pefabloc (4-(2-aminoethyl)-benzenesulfonyl fluoride, hydrochloride manufactured by Roche Diagnostics Corporation, Indianapolis, Ind. and distributed by Boehringer Mannheim). […] Into the wells of a 96-well round bottom polypropylene plates are added buffer, test compound, membrane (containing human V1a or V2 receptor), and H3 vasopressin. The reaction plates are allowed to sit at room temperature for one hour. The samples are filtered through Unifilter GF/C plates (PerkinElmer Life Sciences, Boston, Mass.) presoaked in 0.3 polyethyleneimine. The plates are washed 5 times with cold physiological saline containing 0.05% Tween 20. After drying, the bottom of the filter plates are sealed and 0.025 mL of Microscint-20 (Packard Instrument Co, Meriden, Conn.) is added to each filter. The top of the plate is sealed, and the plate is counted.
(§1) The % inhibition for the test results was calculated according to the formula: […]

Assay [4] deals with T1, human V1a receptor. In words: In-vitro binding assay (3H-arginine-8-vasopressin), V1a. The settings on record: for IC50: membrane containing human V1a receptor, 3H-arginine-8-vasopressin 0.65-0.75 nM; for inhibition at 0.2 µM: test concentration of 0.2 μM, read-out: V1a binding percent inhibition (in parentheses, where an IC50 value was not obtained). The procedure: Assay buffer is 50 mM Tris-Cl, 5 mM MgCl2, 0.1% BSA (pH 7.5) containing 5 μg/mL of aprotinin, leupeptin, pepstatin, 50 μg/mL bacitracin, and 1 mM Pefabloc (4-(2-aminoethyl)-benzenesulfonyl fluoride, hydrochloride manufactured by Roche Diagnostics Corporation, Indianapolis, Ind. and distributed by Boehringer Mannheim). H3 vasopressin is ^3H-arginine-8-vasopressin (NEN Life Sciences, Boston, Mass.; 68.5 Ci/mmol, final concentration in assay is 0.65-0.75 nM). Into the wells of a 96-well round bottom polypropylene plates are added buffer, test compound, membrane (containing human V1a or V2 receptor), and H3 vasopressin. The reaction plates are allowed to sit at room temperature for one hour. The samples are filtered through Unifilter GF/C plates (PerkinElmer Life Sciences, Boston, Mass.) presoaked in 0.3 polyethyleneimine. The plates are washed 5 times with cold physiological saline containing 0.05% Tween 20. After drying, the bottom of the filter plates are sealed and 0.025 mL of Microscint-20 (Packard Instrument Co, Meriden, Conn.) is added to each filter. The top of the plate is sealed, and the plate is counted. Non-specific binding is determined by the addition of 1.25 μM arginine-8-vasopressin in those wells.
as §1
Where an IC50 value was not obtained, the percent inhibition values are shown in parentheses (*) and were obtained at a test concentration of 0.2 μM.

Setting [5] is: V1 (functional) IC50, V1a-HEK cells, inhibition of vasopressin-stimulated intracellular calcium mobilization.

In general, IC50 refers to the midpoint of a concentration-inhibition curve. Broadly, the inhibition is the share of the control response that was lost under treatment.

T2 sequence (P30518 whole entry): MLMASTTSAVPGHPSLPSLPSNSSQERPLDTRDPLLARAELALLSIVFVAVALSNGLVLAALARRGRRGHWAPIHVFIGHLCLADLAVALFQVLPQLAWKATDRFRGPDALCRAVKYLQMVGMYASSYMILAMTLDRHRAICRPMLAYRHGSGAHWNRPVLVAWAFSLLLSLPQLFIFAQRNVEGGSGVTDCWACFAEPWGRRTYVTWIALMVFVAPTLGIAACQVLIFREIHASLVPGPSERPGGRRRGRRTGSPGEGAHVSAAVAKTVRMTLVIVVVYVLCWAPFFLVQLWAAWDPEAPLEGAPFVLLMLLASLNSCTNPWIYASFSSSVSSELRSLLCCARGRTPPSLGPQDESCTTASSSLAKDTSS
T1 sequence (P37288 whole entry): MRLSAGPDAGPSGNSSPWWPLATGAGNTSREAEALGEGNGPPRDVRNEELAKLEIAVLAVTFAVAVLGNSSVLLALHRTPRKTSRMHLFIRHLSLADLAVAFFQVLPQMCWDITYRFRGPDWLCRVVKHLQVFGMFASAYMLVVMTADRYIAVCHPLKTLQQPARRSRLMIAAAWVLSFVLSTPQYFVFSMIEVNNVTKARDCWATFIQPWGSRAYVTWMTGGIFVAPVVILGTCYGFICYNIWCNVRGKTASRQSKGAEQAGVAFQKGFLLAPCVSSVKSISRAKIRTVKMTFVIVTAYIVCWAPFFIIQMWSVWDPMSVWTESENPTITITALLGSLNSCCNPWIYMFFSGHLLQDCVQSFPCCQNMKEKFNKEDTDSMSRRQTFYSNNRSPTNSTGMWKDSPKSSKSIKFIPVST

Consider `NN=C1CCCC12CCN(C(=O)c1ccc(NC(=O)c3cc(F)ccc3Cl)cc1)c1ccccc1C2` (centres unmarked) [Cpd 1, 2-aminoimino-N-[4-(2-chloro-5-fluoro-phenylcarbonyl)amino-phenylcarbonyl]-spiro[cyclopentane-1,4′-benzo[b]azepane]], for which the half-inhibitory concentration (IC50) in assay [1] (setting [5]) came out at 10 nM; in assay [2], 54 nM; in assay [3], 23 nM; in assay [4], 3 nM.

In the case of `COc1cc(C(=O)N2CCC3(CCCC3N)Cc3ccccc32)ccc1NC(=O)c1cccc(F)c1` (centres unmarked) [Cpd 50, 2-amino-N-[3-methoxy-4-(3-fluoro-phenylcarbonyl)amino-phenylcarbonyl]-spiro[cyclopentane-1,4′-benzo[b]azepane]], the values for the inhibition at 0.2 µM in assay [3] and in assay [4] were 9% and 89%, respectively.

Regarding `O=C(Nc1ccc(C(=O)N2CCC3(CCCC3=NO)Cc3ccccc32)cc1)c1cc(F)ccc1Cl` (centres unmarked) [Cpd 44, N-[4-(2-chloro-5-fluoro-phenylcarbonyl)amino-phenylcarbonyl]-2-hydroxyimino-spiro[cyclopentane-1,4′-benzo[b]azepane]], the IC50 in assay [1] (setting [5]) stood at 20 nM; in assay [2], 66 nM; in assay [3] it was 28 nM; in assay [4] it was 7 nM.

Turning to `O=C(Nc1ccc(C(=O)N2CCC3(CCCC3=NNc3ccccn3)Cc3ccccc32)cc1)c1cc(F)ccc1Cl` (centres unmarked) [Cpd 43, N-[4-(2-chloro-5-fluoro-phenylcarbonyl)amino-phenylcarbonyl]-2-pyridin-2-ylaminoimino-spiro[cyclopentane-1,4′-benzo[b]azepane]], the IC50 was determined as 80 nM in assay [1] (setting [5]), 200 nM in assay [2], 56 nM in assay [3] and 5 nM in assay [4].

In the case of `CN(C)C1CCCC12CCN(C(=O)c1ccc(NC(=O)c3cc(F)ccc3Cl)cc1)c1ccccc1C2` (centres unmarked) [Cpd 6, N-[4-(2-chloro-5-fluoro-phenylcarbonyl)amino-phenylcarbonyl]-2-dimethylamino-spiro[cyclopentane-1,4′-benzo[b]azepane]], the IC50 was 70 nM in assay [1], 107 nM in assay [2] and 10 nM in assay [4]. Besides, in assay [3], the inhibition at 0.2 µM stood at 63%.

On to `O=C(Nc1ccc(C(=O)N2CC[C@@]3(CCCC3=NO)Cc3ccccc32)cc1)c1cc(F)ccc1Cl` [Cpd 7, (R)—N-[4-(2-chloro-5-fluoro-phenylcarbonyl)amino-phenylcarbonyl]-2-hydroxyimino-spiro[cyclopentane-1,4′-benzo[b]azepane]], for which the 50% inhibitory concentration (IC50) in assay [1] (setting [5]) worked out at 18 nM; in assay [2] it was 24 nM; in assay [3], 28 nM; in assay [4], 8 nM.

Regarding `Cc1ccn(-c2ccc(C(=O)N3CCC4(CCCC4=NO)Cc4ccccc43)cc2)n1` (centres unmarked) [Cpd 47, N-[4-(3-methyl-1H-pyrazol-1-yl)-phenylcarbonyl]-2-hydroxyimino-spiro[cyclopentane-1,4′-benzo[b]azepane]], the inhibition at 0.2 µM in assay [3] was found to be 62%; in assay [4], 86%.

As for `O=C(c1ccc(N2CCCC2)cc1)N1CCC2(CCCC2=NO)Cc2ccccc21` (centres unmarked) [Cpd 46, N-[4-pyrrolidin-1-yl-phenylcarbonyl]-2-hydroxyimino-spiro[cyclopentane-1,4′-benzo[b]azepane]], the inhibition at 0.2 µM in assay [3] was found to be 40%; in assay [4], 73%.

On to `Cc1ccccc1C(=O)Nc1ccc(C(=O)N2CCC3(CCCC3=NO)Cc3ccccc32)cc1` (centres unmarked) [Cpd 49, N-[4-(2-methyl-phenylcarbonyl)amino-phenylcarbonyl]-2-hydroxyimino-spiro[cyclopentane-1,4′-benzo[b]azepane]], for which the IC50 was determined as 34 nM in assay [3] and 12 nM in assay [4].

Take `O=C(Nc1ccc(C(=O)N2CC[C@]3(CCCC3=NO)Cc3ccccc32)cc1)c1cc(F)ccc1Cl` [Cpd 45, (S)—N-[4-(2-chloro-5-fluoro-phenylcarbonyl)amino-phenylcarbonyl]-2-hydroxyimino-spiro[cyclopentane-1,4′-benzo[b]azepane]]: the IC50 in assay [1] (setting [5]) is 570 nM; in assay [2] it was 550 nM. Further, the inhibition at 0.2 µM came to 10% in assay [3] and 67% in assay [4].

On to `CN(C)N=C1CCCC12CCN(C(=O)c1ccc(NC(=O)c3cc(F)ccc3Cl)cc1)c1ccccc1C2` (centres unmarked) [Cpd 3, N-[4-(2-chloro-5-fluoro-phenylcarbonyl)amino-phenylcarbonyl]-2-dimethylaminoimino-spiro[cyclopentane-1,4′-benzo[b]azepane]], for which the 50% inhibitory concentration (IC50) in assay [1] (setting [5]) turned out to be 20 nM; in assay [2], 250 nM; in assay [4], 9 nM. Also, the inhibition at 0.2 µM in assay [3] was determined as 48%.

Take `NN=C1CCCC12CCN(C(=O)c1ccc(NC(=O)c3ccccc3-c3ccccc3)cc1)c1ccccc1C2` (centres unmarked) [Cpd 38, 2-aminoimino-N-[4-(biphen-2-ylcarbonyl)amino-phenylcarbonyl]-spiro[cyclopentane-1,4′-benzo[b]azepane]]: the IC50 was below 30 nM in assay [1] (setting [5]), 40 nM in assay [2], 24 nM in assay [3] and 21 nM in assay [4].

For `COc1cc(C(=O)N2CCC3(CCCC3=NO)Cc3ccccc32)ccc1NC(=O)c1cccc(F)c1` (centres unmarked) [Cpd 51, N-[3-methoxy-4-(3-fluoro-phenylcarbonyl)amino-phenylcarbonyl]-2-hydroxyimino-spiro[cyclopentane-1,4′-benzo[b]azepane]], the IC50 in assay [3] was 87 nM; in assay [4], 16 nM.

Consider `Cc1ccc(F)cc1C(=O)Nc1ccc(C(=O)N2CCC3(CCCC3=NO)Cc3ccccc32)cc1` (centres unmarked) [Cpd 48, N-[4-(2-methyl-5-fluoro-phenylcarbonyl)amino-phenylcarbonyl]-2-hydroxyimino-spiro[cyclopentane-1,4′-benzo[b]azepane]], for which the figures for the IC50 in assay [3] and in assay [4] were 26 nM and 16 nM, respectively.

Turning to `O=C(Nc1ccc(C(=O)N2CCC3(CCCC3=NO)Cc3ccccc32)cn1)c1cc(F)ccc1Cl` (centres unmarked) [Cpd 10, N-[6-(2-chloro-5-fluoro-phenylcarbonyl)amino-pyridin-3-ylcarbonyl]-2-hydroxyimino-spiro[cyclopentane-1,4′-benzo[b]azepane]], the IC50 came out at 70 nM in assay [3] and 60 nM in assay [4].

`COc1cc(C(=O)N2CCC3(CCCC3N)Cc3ccccc32)ccc1NC(=O)c1cc(F)ccc1Cl` (centres unmarked) [Cpd 8, 2-amino-N-[3-methoxy-4-(2-chloro-5-fluoro-phenylcarbonyl)amino-phenylcarbonyl]-spiro[cyclopentane-1,4′-benzo[b]azepane]]: the IC50 is 83 nM in assay [3] and 16 nM in assay [4].

For `CON=C1CCCC12CCN(C(=O)c1ccc(NC(=O)c3cc(F)ccc3Cl)cc1)c1ccccc1C2` (centres unmarked) [Cpd 2, N-[4-(2-chloro-5-fluoro-phenylcarbonyl)amino-phenylcarbonyl]-2-methoxyimino-spiro[cyclopentane-1,4′-benzo[b]azepane]], the IC50 in assay [3] is 44 nM; in assay [4], 7 nM.

The values are drawn from patent publication US20080306044A1, “SPIROBENZOAZEPANES AS VASOPRESSIN ANTAGONISTS” (priority 2007, published 2008).
